{"source": "patent US9909125B2", "about": "“Molecular targets for selective eradication of senescent cells” (Everon Biosciences, Inc., priority 2013, dated 2018)", "test_system": "senescent human neonatal dermal fibroblasts", "test": "Crystal violet staining of shRNA-transduced senescent fibroblasts (FIG. 4)", "assay_type": "cell-based", "conditions": "lentiviral shRNA, puromycin 72 hours, crystal violet at 20 days; senescence by bleomycin 10 μg/ml 24 hr + 10 days", "experimental": "FIG. 4. Effect of selected shRNAs on viability of proliferating and senescent human neonatal dermal fibroblasts. Senescence was induced by treatment with bleomycin (10 μg/ml) for 24 hr followed by incubation for 10 days to establish senescent phenotype. (1) The proliferating and senescent cells were transduced with lentiviruses carrying both shRNA and mCherry constructs. Transduced cells were selected with puromycin for 72 hours and the presence of shRNA construct was confirmed by microscopic detection of mCherry fluorescence (see example of mCherry fluorescence in FIG. 4, panel 1). In 8 days for proliferating and 20 days for senescent cells, the cells were stained with crystal violet dye. The images of the live/dead cells were obtain using a digital camera (panels 2-4).\nTo confirm universal activity of identified target genes across different senescence models 60 candidate shRNA identified in all primary screenings were transduced to a secondary models of senescence: human diploid dermal fibroblasts induced to senescence by bleomycin treatment (DNA-damage induction) or senescence was induced by replicative exhaustion (replicative senescence)."}
{"substance": "FGF1: shRNA coding sequence targeting FGF1 (DNA CCTGATAACAAGTAAGGATATGTTAATATTCATAGCATATCCTTGCTTGTTATCAGG)", "values": [{"measurement": "effect on viability of senescent cells", "value": "critical for viability of senescent cells"}]}
{"substance": "POU5F1: shRNA coding sequence targeting POU5F1 (DNA TCATTCACTAAGGAAGGAATTGTTAATATTCATAGCAATTCCTTCCTTAGTGAATGA)", "values": [{"measurement": "effect on viability of senescent cells", "value": "critical for viability of senescent cells"}]}
